Measured values taken from PubChem BioAssay (NCI).
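Exposure lasted 48 hours, with cells grown in 96-well plates and compounds tested at five concentrations. GI50 is the concentration that inhibits growth by half. Definition used: TGI = concentration required for complete inhibition of growth.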

Columns and labels:
Experiment in all cases: NCI tumour cell line growth inhibition, 48 h
[1] = test system: HCT-116 colon
[2] = test system: NCI-H460 lung
[3] = test system: T-47D breast
[4] = test system: NCI/ADR-RES ovarian
[5] = test system: SW-620 colon
[6] = test system: SR leukemia
[7] = test system: SF-539 CNS
[8] = test system: HOP-62 NSCLC
[9] = test system: SK-MEL-2 melanoma
[10] = test system: SNB-78 CNS
[11] = test system: M19-MEL melanoma

Row | SMILES | TGI [1] | TGI [2] | TGI [3] | TGI [4] | TGI [5] | TGI [6] | TGI [7] | TGI [8] | TGI [9] | GI50 [1] | GI50 [2] | GI50 [3] | GI50 [4] | GI50 [5] | GI50 [6] | GI50 [7] | GI50 [8] | GI50 [9] | TGI [10] | TGI [11]
1 | CC(C)(C)OC(=O)NCCNC(=O)CN(CC(=O)O)C1CCCCC1N(CC(=O)O)CC(=O)O (stereo unspecified) | > 100 µM | > 100 µM | > 100 µM | > 100 µM | > 100 µM | > 100 µM | > 100 µM | > 100 µM | > 100 µM |  |  |  |  |  |  |  |  |  |  | 
2 | Clc1ccc(-c2nn3c(C45CC6CC(CC(C6)C4)C5)nnc3s2)cc1 | > 100 µM | > 100 µM | > 100 µM | > 100 µM | > 100 µM | > 100 µM | > 100 µM | > 100 µM | > 100 µM |  |  |  |  |  |  |  |  |  |  | 
3 | COC1CCC(n2c([C@@H]3CCCC(=O)N3c3ccc(F)c(F)c3)nc3cc(-c4c(C)noc4C)ccc32)CC1 (stereo partly specified) | 22.4 µM | > 100 µM | 50.7 µM | 30 µM | > 100 µM | > 100 µM | 23 µM | > 100 µM | 35.5 µM | 10 µM | 26.3 µM | 2.03 µM | 13.5 µM | 19.1 µM | 0.755 µM | 9.79 µM | 4.46 µM | 11.4 µM |  | 
4 | Cc1ccc(Nc2ccc(Nc3ccc(C)cc3S(=O)(=O)O)c3c2C(=O)c2ccccc2C3=O)c(S(=O)(=O)O)c1 | > 100 µM | > 100 µM |  |  | > 100 µM | > 100 µM | > 100 µM | > 100 µM | > 100 µM |  |  |  |  |  |  |  |  |  | > 100 µM | 
5 | Nc1ccc(-c2nc3cc(F)ccc3s2)cc1 | > 100 µM | > 100 µM | > 100 µM | > 100 µM | > 100 µM | > 100 µM | > 100 µM | 39.2 µM | > 100 µM |  |  |  |  |  |  |  |  |  |  | 
6 | COc1c(Cl)c(Cl)c(OC)c2c1C(=O)C=CC2=O | 31.6 µM | > 100 µM |  |  | 31.2 µM | 42.9 µM | 41.2 µM |  | 33.9 µM |  |  |  |  |  |  |  |  |  | 26.7 µM | 32.3 µM
7 | CC1(CO)C(=O)OC12CCCCC2 (stereo unspecified) | > 100 µM |  |  |  | > 100 µM | > 100 µM | > 100 µM | > 100 µM | > 100 µM |  |  |  |  |  |  |  |  |  | > 100 µM | > 100 µM
8 | CC(C)(C)OC(=O)N1C/C=C\C(=O)C2(OCCO2)c2ccccc21 | 34.9 µM | 50.5 µM | 49.5 µM | > 100 µM | 58.7 µM | 77.9 µM | 50.3 µM | > 100 µM | 68.5 µM |  |  |  |  |  |  |  |  |  |  | 
9 | CC(=O)N1C(OCc2ccccc2)CCN1c1ccccc1 (stereo unspecified) | > 10 µM | > 10 µM | > 10 µM | > 10 µM | > 10 µM | > 10 µM | > 10 µM | > 10 µM | > 10 µM |  |  |  |  |  |  |  |  |  |  | 
10 | O=C1C(CN2CCCC2)CCCC1CN1CCCC1 (stereo unspecified) | 3.28 µM | 43.5 µM | 6.96 µM | 18.9 µM | 0.32 µM | 5.66 µM | 16.1 µM | > 71.1 µM | 37.4 µM |  |  |  |  |  |  |  |  |  |  | 
